The source of these data is patent publication US5905068A, “Retroviral protease inhibiting compounds” (Abbott Laboratories, priority 1996, dated 1999).

The subject of one data set is HIVIIIB. Put plainly: Antiviral Activity: anti-HIV activity in MT4 cells infected with HIVIIIB (MTT). The class given is cell-based. The settings on record: Human immunodeficiency virus 1, 120 h, MOI 0.003, 5 days, n=four duplicate determinations. The protocol: (§1) The anti-HIV activity of the compound of the invention was determined in MF4 cells according to the following procedure: MT4 cells were infected with cell-free supernatant of HIVIIIB (previously frozen with known 50% tissue culture infectious dose (TCID50) at 0.003 multiplicity of infection (MOI)) for one hour. After one hour infection, cells were washed twice to remove residual viruses, resuspended in culture media and seeded into 96-well tissue culture plates at 1×10^4 cells per well with various half-log dilutions of compounds. Uninfected cells were included a toxicity and cell controls. RPMI 1640 media (GIBCO) with 10% fetal bovine serum was used as culture media. Various concentrations (50%, 25% and 12.5%) of human serum (SIGMA) were added to culture media resulting in final concentrations of 60%, 35% and 22.5% total serum. All assay plates were incubated in a 37° C. incubator for 5 days. The compound 3-[4,5-dimethylthiozol-2-yl]-2,5-diphenyltetrazolium bromide (MTT, SIGMA, 5 mg .mL stock in PBS) was then added to all wells at 25 μL per well and incubated for 4 hours. SDS (20%) with 0.02N HCl in water was added at 50 μL per well to lyse cells. Plates were incubated overnight for complete cell lysis and then read on a microtiter plate reader at 570/650 nm wavelengths to determine cell optical density (O.D.). Raw data was analysed for percent inhibition by the following formula: [formula]
The 50% effective concentration (EC50) was calculated by the median effect equation (Chou, 1975, Proc. Int. Cong. Pharmacol. 6th p. 619) to determine the efficacy of compound. The 50% cytotoxicity concentration (CTC50) was calculated using uninfected MT4 cells
Under these conditions, the data of Table 2 was obtained (n=four duplicate determinations).

Data set [1] in a line: Cytotoxicity in uninfected MT4 cells (MTT). The data set is classed as cell-based. The settings on record: human, 5 days, n=four duplicate determinations, read-out: CTC50 (50% cytotoxicity concentration). The protocol:
as §1, with “RPMI 1640 media (GIBCO) with 10% fetal bovine serum was used as culture media. Various concentrations (50%, 25% and 12.5%) of human serum (SIGMA) were added to culture media resulting in final concentrations of 60%, 35% and 22.5% total serum.” left out, “The compound 3-[4,5-dimethylthiozol-2-yl]-2,5-diphenyltetrazolium bromide (MTT, SIGMA, 5 mg .mL stock in PBS) was then added to all wells at 25 μL per well and incubated for 4 hours.” left out
The 50% cytotoxicity concentration (CTC50) was calculated using uninfected MT4 cells

For the next data set, the target named is HIV-1 protease (Human immunodeficiency virus type 1 group M subtype B, UniProt P04585). Put plainly: Fluorogenic Assay for Screening Inhibitors of HIV Protease. The conditions noted are these: pH 4.5.

Each structure is given as a SMILES string.

Procedure for HIV-1 protease: The inhibitory potency of the compounds of the invention were determined by the following method: The compound of the invention was dissolved in DMSO and a small aliquot further diluted with DMSO to 100 times the final concentration desired for testing. The reaction was carried out in a 6×50 mm tube in a total volume of 300 microliters. […] After addition of inhibitor, the reaction mixture was placed in the fluorometer cell holder and incubated at 30° C. for several minutes. The reaction was initiated by the addition of a small aliquot of cold HIV protease. The fluorescence intensity (excitation 340 nm, emission 490 nm) was recorded as a function of time. The reaction rate was determined for the first six to eight minutes. The observed rate was directly proportional to the moles of substrate cleaved per unit time. The percent inhibition was calculated according to the equation: 100×(1-(rate of inhibitor)/(rate in absence of inhibitor)). As a control, duplicate reactions were performed identically as above but without the addition of an inhibitor compound.

As usually defined, the EC50 is the concentration that produces a half-maximal response. A high value points to weaker potency. What is called inhibition is how much of the control response was suppressed. Read a high inhibition as a response far below the control. In the data set on HIVIIIB, `CC(C)c1nc(COC(=O)N[C@H](C(=O)N[C@@H](Cc2ccccc2)C[C@H](O)[C@H](Cc2ccccc2)NC(=O)OC2COC3OCCC23)C(C)C)cs1` (stereo partly drawn) [Example 37] had a half-maximal effective concentration (EC50) of 14 nM. In addition, the CC50 at 120 h in data set [1] is > 100000 nM. The same compound came in with an inhibition at 0.0005 µM on HIV-1 protease of 83%.
The like results for `O=C(N[C@@H](Cc1ccccc1)[C@@H](O)C[C@H](Cc1ccccc1)NC(=O)O[C@@H]1CO[C@@H]2OCC[C@@H]21)OCc1cncs1` [Example 38, (2S,3S,5S)-2-((5-Thiazolyl)methoxycarbonyl)amino-5-((3S,3aR,6aS)-bis-tetrahydrofuran-3-yl-oxycarbonyl)amino-1,6-diphenyl-3-hydroxyhexane] were, in that order, 140 nM, > 100000 nM and 53%.
Compound `CC(C)c1nc(CN(C)C(=O)N[C@@H](C(=O)N[C@@H](Cc2ccccc2)C[C@H](O)[C@H](Cc2ccccc2)NC(=O)OC2COC3OCCC23)C(C)C)cs1` (stereo partly drawn) [Example 39, (2S,3S,5S)-5-(N-(N-((N-Methyl-N-((2-isopropyl-4-thiazolyl)methyl)amino)carbonyl)-D-valinyl)amino)-2-((3R,3aS,6aR), (3S,3aR,6aS)-bis-tetrahydrofuran-3-yl-oxycarbonyl)amino-1,6-diphenyl-3-hydroxyhexane] yielded a 50% effective concentration (EC50) in the data set with HIVIIIB of 55 nM. Besides, the CC50 at 120 h in data set [1] stood at 56200 nM. In addition, testing at 0.0005 µM against HIV-1 protease gave an inhibition of 66%.
Turning to `O=C(N[C@@H](Cc1ccccc1)C[C@H](O)[C@H](Cc1ccccc1)NC(=O)OC1COC2OCCC12)OCc1cncs1` (stereo partly drawn) [Example 40, (2S,3S,5S)-5-((5-Thiazolyl)methoxycarbonyl)amino-2-((3R,3aS,6aR), (3S,3aR,6aS)-bis-tetrahydrofuran-3-yl-oxycarbonyl)amino-1,6-diphenyl-3-hydroxyhexane], the EC50 with HIVIIIB came to 502 nM. For the same compound, in data set [1], the CC50 at 120 h was > 100000 nM. This compound also displayed an inhibition at 0.0005 µM on HIV-1 protease of 43%.
For the compound `O=C(N[C@@H](Cc1ccccc1)C[C@H](O)[C@H](Cc1ccccc1)NC(=O)OC1COC2OCCC12)OC1COC2OCCC12` (stereo partly drawn) [Example 41, (2S,3S,5S)-2,5-((3R,3aS,6aR)-bis-Tetrahydrofuran-3-yl-oxycarbonyl)amino-1,6-diphenyl-3-hydroxyhexane], in the data set on HIVIIIB, the EC50 was 43 nM. The CC50 at 120 h in data set [1] is > 100000 nM. In addition, at 0.0005 µM the inhibition against HIV-1 protease was 53%.
The matching figures for `CC(C)[C@H](NC(=O)OCc1cncs1)C(=O)N[C@@H](Cc1ccccc1)C[C@H](O)[C@H](Cc1ccccc1)NC(=O)O[C@H]1CO[C@H]2OCC[C@H]21` [Example 42, (2S,3S,5S)-5-(N-(N-((5-Thiazolyl)methoxycarbonyl)-L-valinyl)amino)-2-((3R,3aS,6aR)-bis-tetrahydrofuran-3-yl-oxycarbonyl)amino-1,6-diphenyl-3-hydroxyhexane]: 70 nM, > 100000 nM and 80%.
The matching figures for `CC(C)[C@@H](NC(=O)OCc1cncs1)C(=O)N[C@@H](Cc1ccccc1)C[C@H](O)[C@H](Cc1ccccc1)NC(=O)O[C@H]1CO[C@H]2OCC[C@H]21` [Example 43, (2S,3S,5S)-5-(N-(N-((5-Thiazolyl)methoxycarbonyl)-D-valinyl)amino)-2-((3R,3aS,6aR)-bis-tetrahydrofuran-3-yl-oxycarbonyl)amino-1,6-diphenyl-3-hydroxyhexane]: 270 nM, > 100000 nM and 42%.
The matching figures for `CC(C)[C@@H](NC(=O)N(C)Cc1cncs1)C(=O)N[C@@H](Cc1ccccc1)C[C@H](O)[C@H](Cc1ccccc1)NC(=O)O[C@H]1CO[C@H]2OCC[C@H]21` [Example 44, (2S,3S,5S)-5-(N-(N-((N-Methyl-N-((5-thiazolyl)methyl)amino)carbonyl)-D-valinyl)amino)-2-((3R,3aS,6aR)-bis-tetrahydrofuran-3-yl-oxycarbonyl)amino-1,6-diphenyl-3-hydroxyhexane]: 370 nM, > 100000 nM and 72%.
In the data set on HIVIIIB, `CC(C)[C@H](NC(=O)N(C)Cc1cncs1)C(=O)N[C@@H](Cc1ccccc1)C[C@H](O)[C@H](Cc1ccccc1)NC(=O)O[C@H]1CO[C@H]2OCC[C@H]21` [Example 45, (2S,3S,5S)-5-(N-(N-((N-Methyl-N-((5-thiazolyl)methyl)amino)carbonyl)-L-valinyl)amino)-2-((3R,3aS,6aR)-bis-tetrahydrofuran-3-yl-oxycarbonyl)amino-1,6-diphenyl-3-hydroxyhexane] registered an EC50 of 450 nM. For the same compound, the CC50 at 120 h in data set [1] was > 100000 nM. For the same compound, on HIV-1 protease, the inhibition at 0.0005 µM was 56%.
The like results for `CC(C)c1nc(CN(C)C(=O)N[C@H](C(=O)N[C@@H](Cc2ccccc2)[C@@H](O)C[C@H](Cc2ccccc2)NC(=O)O[C@H]2CO[C@H]3OCC[C@H]32)C(C)C)cs1` [Example 46, (2S,3S,5S)-2-(N-(N-((N-Methyl-N-((2-isopropyl-4-thiazolyl)methyl)amino)carbonyl)-L-valinyl)amino)-5-((3R,3aS,6aR)-bis-tetrahydrofuran-3-yl-oxycarbonyl)amino-1,6-diphenyl-3-hydroxyhexane] were, in that order, 34 nM, 56200 nM and 74%.
The like results for `Cc1nc(CN(C)C(=O)N[C@H](C(=O)N[C@@H](Cc2ccccc2)C[C@H](O)[C@H](Cc2ccccc2)NC(=O)O[C@@H]2CO[C@@H]3OCC[C@@H]32)C(C)C)cs1` [Example 47, (2S,3S,5S)-5-(N-(N-((N-Methyl-N-((2-methyl-4-thiazolyl)methyl)amino)carbonyl)-L-valinyl)amino)-2-((3S,3aR,6aS)-bis-tetrahydrofuran-3-yl-oxycarbonyl)amino-1,6-diphenyl-3-hydroxyhexane] were, in that order, 55 nM, > 100000 nM and 82%.
`CC(C)c1nc(CN(C)C(=O)N[C@H](C(=O)N[C@@H](Cc2ccccc2)C[C@H](O)[C@H](Cc2ccccc2)NC(=O)O[C@@H]2CO[C@@H]3OCC[C@@H]32)C(C)C)cs1` [Example 48, (2S,3S,5S)-5-(N-(N-((N-Methyl-N-((2-isopropyl-4-thiazolyl)methyl)amino)carbonyl)-L-valinyl)amino)-2-((3S,3aR,6aS)-bis-tetrahydrofuran-3-yl-oxycarbonyl)amino-1,6-diphenyl-3-hydroxyhexane] showed a concentration giving a half-maximal response (EC50) with HIVIIIB of 11 nM. Moreover, the CC50 at 120 h in data set [1] stood at 46600 nM. This compound registered an inhibition at 0.0005 µM against HIV-1 protease of 80%.
Turning to `Cc1nc(CN(C)C(=O)N[C@H](C(=O)N[C@@H](Cc2ccccc2)C[C@H](O)[C@H](Cc2ccccc2)NC(=O)O[C@H]2CO[C@H]3OCC[C@H]32)C(C)C)cs1` [Example 49, (2S,3S,5S)-5-(N-(N-((N-Methyl-N-((2-methyl-4-thiazolyl)methyl)amino)carbonyl)-L-valinyl)amino)-2-((3R,3aS,6aR)-bis-tetrahydrofuran-3-yl-oxycarbonyl)amino-1,6-diphenyl-3-hydroxyhexane], in the data set with HIVIIIB, the midpoint of the response, the EC50, lay at 42 nM. Moreover, the CC50 at 120 h in data set [1] was > 100000 nM. The compound further came in with an inhibition at 0.0005 µM against HIV-1 protease of 74%.
In the data set with HIVIIIB, `CC(C)c1nc(CN(C)C(=O)N[C@H](C(=O)N[C@@H](Cc2ccccc2)C[C@H](O)[C@H](Cc2ccccc2)NC(=O)O[C@H]2CCOC2)C(C)C)cs1` [Example 50, (2S,3S,5S)-5-(N-(N-((N-Methyl-N-((2-isopropyl-4-thiazolyl)methyl)amino)carbonyl)-L-valinyl)amino)-2-(3S-tetrahydrofuran-3-yl-oxycarbonyl)amino-1,6-diphenyl-3-hydroxyhexane] displayed an EC50 of 32 nM. Moreover, in data set [1], the CC50 at 120 h was found to be 56200 nM. For the same compound, the inhibition at 0.0005 µM at HIV-1 protease was found to be 68%.
Compound `CC(C)c1nc(CN(C)C(=O)NC(C(=O)NC(Cc2ccccc2)CC(O)C(Cc2ccccc2)NC(=O)OC2COC3OCCC23)C(C)C)cs1` [Example 51, (2S,3S,5S)-5-(N-(N-((N-Methyl-N-((2-isopropyl-4-thiazolyl)methyl)amino)carbonyl)-D-valinyl)amino)-2-((3R,3aS,6aR)-bis-tetrahydrofuran-3-yl-oxycarbonyl)amino-1,6-diphenyl-3-hydroxyhexane] displayed an EC50 in the data set with HIVIIIB of 12 nM. Besides, the CC50 at 120 h in data set [1] was > 100000 nM. Further, the inhibition at 0.0005 µM at HIV-1 protease turned out to be 83%.
